In US4207326A, “Antimicrobial quaternary pyrazole derivatives” (Cilag-Chemie A.G., priority 1979, dated 1980):

What follows are compounds tested on S. pyogenes (assay: Antibacterial activity: Minimum Inhibitory Concentration). Conditions: Streptococcus pyogenes, Day 1, 37° C., 24 hours.
Assay type: cell-based, Streptococcus pyogenes NCTC 8198
Protocol: (§1) The antimicrobial activity was determined by inoculation of the test microorganism into suitable growth media containing solutions of the compounds at concentrations of 100, 50, 10, 5, 1.0, 0.5 and 0.1 μg/ml. The reference antibiotics used were Gentamicin for the antibacterial tests and Amphotericin B for the antimycotic and antifungal tests. After incubation the antimicrobial activity was recorded as the Minimal Inhibitory Concentration (M.I.C.), i.e., the lowest concentration preventing macroscopically visible growth, for each test compound against each organism.
(§2) An initial solution of each formula (I) compound to be tested in sterile distilled water was prepared at a concentration of 1000 μg/ml. With appropriate dilutions using sterile distilled water, additional solutions were prepared at concentrations of 500, 100, 50, 10, 5 and 1 μg/ml.
They were cultured and maintained on Tryptone Soy Agar (Oxoid CM 131), with the addition of 10% horse blood for the S. pyogenes.
To prepare the organisms as inocula for the test, slopes of this medium were streaked with the organisms and incubated at 37° C. for 24 hours. 4.5 Ml volumes of Brian-Heart Infusion Broth (Oxoid CM 225) were then inoculated with a platinum loop from the agar slope cultures and incubated for 24 hours at 37° C. The final inocula were then prepared by adding 0.1 ml aliquots of the Brain-Heart Infusion Broth cultures to 100 ml volumes of sterile physiological saline.
(a) For the test on each of the bacterial strains and each of the test and reference compounds, a series of 8 tubes containing 4.5 ml volumes of Brain-Heart Infusion Broth (Oxoid CM 225) were prepared. To 7 of these were added 0.5 ml volumes of the final solutions of the test compouns, giving final concentrations in the broths of 100, 50, 10, 5, 1.0, 0.5 and 0.1 μg/ml. To the eighth tube in each series was added 0.5 ml of the solvent used and diluted as for the preparation of the 1000 μg/ml solution of the compound. This tube was used as the growth control. The tubes were inoculated with 0.02 ml aliquots of the inocula prepared in accordance with "(a) Bacteria" above, and incubated at 37° C. for 24 hours. The tubes were then examined for evidence of bacterial growth as shown by turbidity of the medium and the lowest concentration of the test compound which prevented bacterial growth was recorded as the Minimal Inhibitory Concentration. This test procedure was carried out on two separate days.
In the case of `CCCCCCCCCCCCCCn1ccc[n+]1C` [Example 3-G, 2-methyl-1-tetradecyl-pyrazolium methosulfate], the MIC was 0.5 µg/mL.
In the case of `CCCCCCCCCCCC[n+]1c(C)cc(C)n1Cc1ccc(Cl)cc1Cl.[Br-]` [Example 6-B, 2-(2,4-dichlorobenzyl)-3,5-dimethyl-1-dodecyl-pyrazolium bromide], the MIC was 0.5 µg/mL.
`CCCCCCCCCCCCCC[n+]1c(C)cc(C)n1Cc1ccc([N+](=O)[O-])cc1.[Br-]` [Example 6-D, 3,5-dimethyl-2(4-nitrobenzyl)-1-tetradecyl-pyrazolium bromide] showed an MIC of 0.5 µg/mL.
`CCCCCCCCCCCC[n+]1c(C)cc(C)n1Cc1ccc(Cl)cc1.[Br-]` [Example 6-E, 2-(p-chlorobenzyl)-3,5-dimethyl-1-dodecyl-pyrazolium bromide] was tested, and the MIC was 0.5 µg/mL.
For `C=CCn1c(C)cc(C)[n+]1CCCCCCCCCCCCCCCC.[Br-]` [Example 7, 2-allyl-3,5-dimethyl-1-hexadecyl-pyrazoliumbromide], the MIC was 0.5 µg/mL.

Same assay, conditions: Streptococcus pyogenes, Day 2, 37° C., 24 hours
`CCCCCCCCCCCCCCn1ccc[n+]1C` [Example 3-G, 2-methyl-1-tetradecyl-pyrazolium methosulfate] gave an MIC of 0.5 µg/mL.
Work on `CCCCCCCCCCCC[n+]1c(C)cc(C)n1Cc1ccc(Cl)cc1Cl.[Br-]` [Example 6-B, 2-(2,4-dichlorobenzyl)-3,5-dimethyl-1-dodecyl-pyrazolium bromide] yielded an MIC of 0.5 µg/mL.
`CCCCCCCCCCCCCC[n+]1c(C)cc(C)n1Cc1ccc([N+](=O)[O-])cc1.[Br-]` [Example 6-D, 3,5-dimethyl-2(4-nitrobenzyl)-1-tetradecyl-pyrazolium bromide] showed an MIC of 1 µg/mL.
For `CCCCCCCCCCCC[n+]1c(C)cc(C)n1Cc1ccc(Cl)cc1.[Br-]` [Example 6-E, 2-(p-chlorobenzyl)-3,5-dimethyl-1-dodecyl-pyrazolium bromide], the MIC was 0.5 µg/mL.
`C=CCn1c(C)cc(C)[n+]1CCCCCCCCCCCCCCCC.[Br-]` [Example 7, 2-allyl-3,5-dimethyl-1-hexadecyl-pyrazoliumbromide] gave an MIC of 0.5 µg/mL.

What follows are compounds tested on C. albicans (assay: Antimycotic activity: Minimum Inhibitory Concentration). Conditions: C. albicans, Day 2; pH 5.5, 37° C., 72 hours.
Assay type: cell-based, Candida albicans ATCC 10231
Protocol: as §1, §2
The two species, C. albicans and C. tropicalis, were maintained on Sabouraud-Dextrose Agar (Oxoid CM41) and cultures for the preparation of the inoculum were incubated on this agar at 37° C. for 48 hours. 4.5 Ml volumes of citric acid-phosphate buffer pH 5.5 plus Yeast-Nitrogen Base (Difco 0392-15) were then inoculated from the agar cultures and incubated at 37° C. for 48 hours. 0.1 Ml aliquots of these cultures were then added to 100 ml volumes of sterile physiological saline to give the final inocula.
(b) For the tests on each of the C. albicans, C. tropicalis and C. neoformans strains and each of the test and reference compounds, a series of 8 tubes containing 4.5 ml volumes of citric acid-phosphate buffer pH 5.5 plus Yeast-Nitrogen Base (Difco 0392-15) were prepared. To 7 of these were added 0.5 ml volumes of the final solutions of the test compounds, giving final concentrations in the broths of 100, 50, 10, 5, 1.0, 0.5 and 0.1 μg/ml. To the eighth tube in each series was added 0.5 ml of the solvent used and diluted as for the preparation of the 1000 μg/ml solution of the compound. This tube was used as the growth control. The tubes were then inoculated with 0.1 ml aliquots of the inocula prepared as in "(b) Fungi" above. The tubes inoculated with the C. albicans and C. tropicalis were inoculated at 37° C. for 72 hours and the tubes inoculated with the C. neoformans straim were incubated at 30° C. for 72 hours. […] The tubes were then examined for evidence of growth as shown by turbidity of the medium and the lowest concentration of the test compound which prevented fungal growth was recorded as the Minimal Inhibitory Concentration. This test procedure was carried out on two separate days.
For `CCCCCCCCCCCCCCCC[n+]1c(C)cc(C)n1C.Cc1ccc(S(=O)(=O)[O-])cc1` [Example 6-C, 1-hexadecyl-2,3,5-trimethylpyrazolium p-toluene sulfonate], the “Minimum Inhibitory Concentrations” value was 5 µg/mL.

Same assay, conditions: Candida albicans, pH 5.5, C. albicans, Day 1; pH 5.5, 37° C., 72 hours; read-out: Minimum Inhibitory Concentrations
`CCCCCCCCCCCCCCn1ccc[n+]1C` [Example 3-G, 2-methyl-1-tetradecyl-pyrazolium methosulfate] showed an MIC of 5 µg/mL.
With `CCCCCCCCCCCC[n+]1c(C)cc(C)n1Cc1ccc(Cl)cc1Cl.[Br-]` [Example 6-B, 2-(2,4-dichlorobenzyl)-3,5-dimethyl-1-dodecyl-pyrazolium bromide] the MIC was 5 µg/mL.
Compound `CCCCCCCCCCCCCC[n+]1c(C)cc(C)n1Cc1ccc([N+](=O)[O-])cc1.[Br-]` [Example 6-D, 3,5-dimethyl-2(4-nitrobenzyl)-1-tetradecyl-pyrazolium bromide] has an MIC of 10 µg/mL.
Work on `CCCCCCCCCCCC[n+]1c(C)cc(C)n1Cc1ccc(Cl)cc1.[Br-]` [Example 6-E, 2-(p-chlorobenzyl)-3,5-dimethyl-1-dodecyl-pyrazolium bromide] yielded an MIC of 1 µg/mL.
`C=CCn1c(C)cc(C)[n+]1CCCCCCCCCCCCCCCC.[Br-]` [Example 7, 2-allyl-3,5-dimethyl-1-hexadecyl-pyrazoliumbromide] was tested, and the MIC was 5 µg/mL.

Same assay, conditions: Candida albicans, pH 5.5, C. albicans, Day 2; pH 5.5, 37° C., 72 hours; read-out: Minimum Inhibitory Concentrations
With `CCCCCCCCCCCCCCn1ccc[n+]1C` [Example 3-G, 2-methyl-1-tetradecyl-pyrazolium methosulfate] the MIC was 5 µg/mL.
`CCCCCCCCCCCC[n+]1c(C)cc(C)n1Cc1ccc(Cl)cc1Cl.[Br-]` [Example 6-B, 2-(2,4-dichlorobenzyl)-3,5-dimethyl-1-dodecyl-pyrazolium bromide] gave an MIC of 5 µg/mL.
Work on `CCCCCCCCCCCCCC[n+]1c(C)cc(C)n1Cc1ccc([N+](=O)[O-])cc1.[Br-]` [Example 6-D, 3,5-dimethyl-2(4-nitrobenzyl)-1-tetradecyl-pyrazolium bromide] yielded an MIC of 5 µg/mL.
Work on `CCCCCCCCCCCC[n+]1c(C)cc(C)n1Cc1ccc(Cl)cc1.[Br-]` [Example 6-E, 2-(p-chlorobenzyl)-3,5-dimethyl-1-dodecyl-pyrazolium bromide] yielded an MIC of 5 µg/mL.
`C=CCn1c(C)cc(C)[n+]1CCCCCCCCCCCCCCCC.[Br-]` [Example 7, 2-allyl-3,5-dimethyl-1-hexadecyl-pyrazoliumbromide] showed an MIC of 1 µg/mL.

Same assay, conditions: Candida albicans, pH 5.5, read-out: Minimum Inhibitory Concentrations
In the case of `CCCCCCCCCCCCCCCC[n+]1c(C)cc(C)n1C.Cc1ccc(S(=O)(=O)[O-])cc1` [Example 6-C, 1-hexadecyl-2,3,5-trimethylpyrazolium p-toluene sulfonate], the MIC was 5 µg/mL.

These compounds were tested on A. corymbifera (assay: Antifungal activity: Minimum Inhibitory Concentration). Conditions: A. corymbifera, Day 2; 27° C., one week.
Assay type: cell-based, Absidia corymbifera NCPF 2001
Protocol: as §1, §2
A. corymbifera NCPF 2001
The A. corymbifera, A. fumigatus, S. schenkii, T. rubrum, T. mentagrophytes, M. canis and P. verrucosa strains were all maintained on Sabouraud-Dextrose Agar (Oxoid CM 41) by incubating for 14 days at 27° C. To prepare the inocula 30 ml volumes of Sabouraud-Liquid medium (Oxoid CM 147) were inoculated from the agar cultures and incubated at 27° C. until heavy uniform growth resulted. The mycelial growth was then broken up by shaking with glass beads.
1 Ml aliquots were removed from each of the cultures for the purpose of making viable counts and the cultures were then held at 4° C. The viable counts were made by preparing serial ten-fold dilutions of the cultures in sterile physiological saline and spreading on plates of Sabouraud-Dextrose Agar (Oxoid CM 41) which were then incubated at 27° C. for 14 days. When the viable counts had confirmed that each of the inocula contained approximately 10^6 colony forming units (C.F.U.) per ml the cultures were withdrawn from the refrigerator and used as the inocula for the tests.
(c) For the tests on each of the remaining seven strains and each of the test and reference compounds, a series of 8 tubes containing 4.5 ml volumes of Sabouraud-Liquid Medium (Oxoid CM 147) were prepared. To 7 of these were added 0.5 ml volumes of the final solutions of the test compounds, giving final concentrations in the broths of 100, 50, 10, 5, 1.0, 0.5 and 0.1 μg/ml. To the eighth tube in each series was added 0.5 ml of the solvent used and diluted as for the preparation of the 500 μg/ml solution of the compound. This tube was used as a growth control. The tubes were then inoculated with 0.1 ml aliquots of the inocula prepared as in "(b) Fungi" above. The tubes were then incubated at 27° C. with continuous shaking for a period of one week. The tubes were then examined for evidence of growth as shown by the presence of mycelial growth in the medium and the lowest concentration of the test compound which prevented fungal growth was recorded as the Minimal Inhibitory Concentration. This test procedure was carried out on two separate days.
With `CCCCCCCCCCCCCCCC[n+]1c(C)cc(C)n1C.Cc1ccc(S(=O)(=O)[O-])cc1` [Example 6-C, 1-hexadecyl-2,3,5-trimethylpyrazolium p-toluene sulfonate] the “Minimum Inhibitory Concentration” value was 10 µg/mL.

Same assay, conditions: Lichtheimia corymbifera, A. corymbifera, Day 1; 27° C., one week; read-out: Minimum Inhibitory Concentration
Work on `CCCCCCCCCCCCCCn1ccc[n+]1C` [Example 3-G, 2-methyl-1-tetradecyl-pyrazolium methosulfate] yielded an MIC of 10 µg/mL.
For `CCCCCCCCCCCC[n+]1c(C)cc(C)n1Cc1ccc(Cl)cc1Cl.[Br-]` [Example 6-B, 2-(2,4-dichlorobenzyl)-3,5-dimethyl-1-dodecyl-pyrazolium bromide], the MIC was 10 µg/mL.
`CCCCCCCCCCCCCC[n+]1c(C)cc(C)n1Cc1ccc([N+](=O)[O-])cc1.[Br-]` [Example 6-D, 3,5-dimethyl-2(4-nitrobenzyl)-1-tetradecyl-pyrazolium bromide] showed an MIC of 50 µg/mL.
`CCCCCCCCCCCC[n+]1c(C)cc(C)n1Cc1ccc(Cl)cc1.[Br-]` [Example 6-E, 2-(p-chlorobenzyl)-3,5-dimethyl-1-dodecyl-pyrazolium bromide] was tested, and the MIC was 10 µg/mL.
`C=CCn1c(C)cc(C)[n+]1CCCCCCCCCCCCCCCC.[Br-]` [Example 7, 2-allyl-3,5-dimethyl-1-hexadecyl-pyrazoliumbromide] showed an MIC of 5 µg/mL.

Same assay, conditions: Lichtheimia corymbifera, A. corymbifera, Day 2; 27° C., one week; read-out: Minimum Inhibitory Concentration
In the case of `CCCCCCCCCCCCCCn1ccc[n+]1C` [Example 3-G, 2-methyl-1-tetradecyl-pyrazolium methosulfate], the MIC was 10 µg/mL.
For `CCCCCCCCCCCC[n+]1c(C)cc(C)n1Cc1ccc(Cl)cc1Cl.[Br-]` [Example 6-B, 2-(2,4-dichlorobenzyl)-3,5-dimethyl-1-dodecyl-pyrazolium bromide], the MIC was 10 µg/mL.
Work on `CCCCCCCCCCCCCC[n+]1c(C)cc(C)n1Cc1ccc([N+](=O)[O-])cc1.[Br-]` [Example 6-D, 3,5-dimethyl-2(4-nitrobenzyl)-1-tetradecyl-pyrazolium bromide] yielded an MIC of 50 µg/mL.
Compound `CCCCCCCCCCCC[n+]1c(C)cc(C)n1Cc1ccc(Cl)cc1.[Br-]` [Example 6-E, 2-(p-chlorobenzyl)-3,5-dimethyl-1-dodecyl-pyrazolium bromide] has an MIC of 50 µg/mL.
`C=CCn1c(C)cc(C)[n+]1CCCCCCCCCCCCCCCC.[Br-]` [Example 7, 2-allyl-3,5-dimethyl-1-hexadecyl-pyrazoliumbromide] showed an MIC of 5 µg/mL.

Same assay, conditions: Lichtheimia corymbifera, read-out: Minimum Inhibitory Concentration
For `CCCCCCCCCCCCCCCC[n+]1c(C)cc(C)n1C.Cc1ccc(S(=O)(=O)[O-])cc1` [Example 6-C, 1-hexadecyl-2,3,5-trimethylpyrazolium p-toluene sulfonate], the MIC was 10 µg/mL.
